Test results published in PubChem BioAssay (NCI).
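1) Cells in 96-well plates. 2) Compound, 48 h, 5 concentrations. 3) Linear interpolation between surrounding doses. 4) Unreached endpoint = highest concentration. TGI: concentration producing complete growth inhibition.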

Legend:
Assay in all cases: inhibition of tumour cell growth, NCI panel, 48 h
786-0 renal = system: 786-0 renal
A498 renal = system: A498 renal
A549 NSCLC = system: A549 NSCLC
ACHN renal = system: ACHN renal
BT-549 breast = system: BT-549 breast
CAKI-1 renal = system: CAKI-1 renal
CCRF-CEM leukemia = system: CCRF-CEM leukemia
COLO 205 colon = system: COLO 205 colon
DU-145 prostate = system: DU-145 prostate
EKVX NSCLC = system: EKVX NSCLC
HCC-2998 colon = system: HCC-2998 colon
HCT-116 colon = system: HCT-116 colon
HCT-15 colon = system: HCT-15 colon
HL-60(TB) leukemia = system: HL-60(TB) leukemia
HOP-62 NSCLC = system: HOP-62 NSCLC
HOP-92 NSCLC = system: HOP-92 NSCLC
HS 578T breast = system: HS 578T breast
HT29 colon = system: HT29 colon
IGROV1 ovarian = system: IGROV1 ovarian
KM12 colon = system: KM12 colon
LOX IMVI melanoma = system: LOX IMVI melanoma
M14 melanoma = system: M14 melanoma
MALME-3M melanoma = system: MALME-3M melanoma
MCF7 breast = system: MCF7 breast
MDA-MB-231 breast = system: MDA-MB-231 breast
MDA-MB-435 = system: MDA-MB-435
MDA-N = system: MDA-N
MOLT-4 leukemia = system: MOLT-4 leukemia
NCI-H226 lung = system: NCI-H226 lung
NCI-H23 lung = system: NCI-H23 lung
NCI-H522 lung = system: NCI-H522 lung
NCI/ADR-RES ovarian = system: NCI/ADR-RES ovarian
OVCAR-3 ovarian = system: OVCAR-3 ovarian
OVCAR-4 ovarian = system: OVCAR-4 ovarian
OVCAR-5 ovarian = system: OVCAR-5 ovarian
OVCAR-8 ovarian = system: OVCAR-8 ovarian
PC-3 prostate = system: PC-3 prostate
RPMI-8226 leukemia = system: RPMI-8226 leukemia
RXF 393 renal = system: RXF 393 renal
SF-268 CNS = system: SF-268 CNS
SF-295 CNS = system: SF-295 CNS
SF-539 CNS = system: SF-539 CNS
SK-MEL-2 melanoma = system: SK-MEL-2 melanoma
SK-MEL-28 melanoma = system: SK-MEL-28 melanoma
SK-MEL-5 melanoma = system: SK-MEL-5 melanoma
SK-OV-3 ovarian = system: SK-OV-3 ovarian
SN12C renal = system: SN12C renal
SNB-19 CNS = system: SNB-19 CNS
SNB-75 CNS = system: SNB-75 CNS
SR leukemia = system: SR leukemia
SW-620 colon = system: SW-620 colon
T-47D breast = system: T-47D breast
TK-10 renal = system: TK-10 renal
U251 CNS = system: U251 CNS
UACC-257 melanoma = system: UACC-257 melanoma
UACC-62 melanoma = system: UACC-62 melanoma
UO-31 renal = system: UO-31 renal
K-562 leukemia = system: K-562 leukemia

Structure (SMILES): Cc1cn(C2CC(O)C(Cn3nncc3Cn3ccc(=O)[nH]c3=O)O2)c(=O)[nH]c1=O (stereo not given)
- TGI (786-0 renal): > 100 µM
- TGI (A498 renal): > 100 µM
- TGI (A549 NSCLC): > 100 µM
- TGI (ACHN renal): > 100 µM
- TGI (BT-549 breast): > 100 µM
- TGI (CAKI-1 renal): > 100 µM
- TGI (CCRF-CEM leukemia): > 100 µM
- TGI (COLO 205 colon): > 100 µM
- TGI (DU-145 prostate): > 100 µM
- TGI (EKVX NSCLC): > 100 µM
- TGI (HCC-2998 colon): > 100 µM
- TGI (HCT-116 colon): > 100 µM
- TGI (HCT-15 colon): > 100 µM
- TGI (HL-60(TB) leukemia): > 100 µM
- TGI (HOP-62 NSCLC): > 100 µM
- TGI (HOP-92 NSCLC): > 100 µM
- TGI (HS 578T breast): > 100 µM
- TGI (HT29 colon): > 100 µM
- TGI (IGROV1 ovarian): > 100 µM
- TGI (KM12 colon): > 100 µM
- TGI (LOX IMVI melanoma): > 100 µM
- TGI (M14 melanoma): > 100 µM
- TGI (MALME-3M melanoma): > 100 µM
- TGI (MCF7 breast): > 100 µM
- TGI (MDA-MB-231 breast): > 100 µM
- TGI (MDA-MB-435): > 100 µM
- TGI (MDA-N): > 100 µM
- TGI (MOLT-4 leukemia): > 100 µM
- TGI (NCI-H226 lung): > 100 µM
- TGI (NCI-H23 lung): > 100 µM
- TGI (NCI-H522 lung): > 100 µM
- TGI (NCI/ADR-RES ovarian): > 100 µM
- TGI (OVCAR-3 ovarian): > 100 µM
- TGI (OVCAR-4 ovarian): > 100 µM
- TGI (OVCAR-5 ovarian): > 100 µM
- TGI (OVCAR-8 ovarian): > 100 µM
- TGI (PC-3 prostate): > 100 µM
- TGI (RPMI-8226 leukemia): > 100 µM
- TGI (RXF 393 renal): > 100 µM
- TGI (SF-268 CNS): > 100 µM
- TGI (SF-295 CNS): > 100 µM
- TGI (SF-539 CNS): > 100 µM
- TGI (SK-MEL-2 melanoma): > 100 µM
- TGI (SK-MEL-28 melanoma): > 100 µM
- TGI (SK-MEL-5 melanoma): > 100 µM
- TGI (SK-OV-3 ovarian): > 100 µM
- TGI (SN12C renal): > 100 µM
- TGI (SNB-19 CNS): > 100 µM
- TGI (SNB-75 CNS): > 100 µM
- TGI (SR leukemia): > 100 µM
- TGI (SW-620 colon): > 100 µM
- TGI (T-47D breast): > 100 µM
- TGI (TK-10 renal): > 100 µM
- TGI (U251 CNS): > 100 µM
- TGI (UACC-257 melanoma): > 100 µM
- TGI (UACC-62 melanoma): > 100 µM
- TGI (UO-31 renal): > 100 µM

Structure (SMILES): N#Cc1c(Nc2ccccc2)[n+]([O-])c2ccc(Cl)cc2[n+]1[O-]
- TGI (786-0 renal): 34 µM
- TGI (A498 renal): > 61.3 µM
- TGI (A549 NSCLC): > 60.8 µM
- TGI (ACHN renal): 68.5 µM
- TGI (BT-549 breast): 14.9 µM
- TGI (CAKI-1 renal): > 100 µM
- TGI (CCRF-CEM leukemia): > 27.2 µM
- TGI (COLO 205 colon): 8.03 µM
- TGI (DU-145 prostate): > 96.4 µM
- TGI (EKVX NSCLC): > 32.9 µM
- TGI (HCC-2998 colon): 15.2 µM
- TGI (HCT-116 colon): 33.1 µM
- TGI (HCT-15 colon): 6.53 µM
- TGI (HL-60(TB) leukemia): 12.1 µM
- TGI (HOP-62 NSCLC): > 69.9 µM
- TGI (HOP-92 NSCLC): 4.22 µM
- TGI (HS 578T breast): > 72.8 µM
- TGI (HT29 colon): 8.22 µM
- TGI (IGROV1 ovarian): 5.96 µM
- TGI (K-562 leukemia): > 22.6 µM
- TGI (KM12 colon): > 100 µM
- TGI (LOX IMVI melanoma): 12.7 µM
- TGI (M14 melanoma): 34.1 µM
- TGI (MALME-3M melanoma): 26.9 µM
- TGI (MCF7 breast): > 35.2 µM
- TGI (MDA-MB-231 breast): > 67 µM
- TGI (MDA-MB-435): > 100 µM
- TGI (MDA-N): > 100 µM
- TGI (MOLT-4 leukemia): > 100 µM
- TGI (NCI-H226 lung): > 45.2 µM
- TGI (NCI-H23 lung): 17.4 µM
- TGI (NCI-H522 lung): 6.49 µM
- TGI (NCI/ADR-RES ovarian): 8.15 µM
- TGI (OVCAR-3 ovarian): 9.76 µM
- TGI (OVCAR-4 ovarian): 4.17 µM
- TGI (OVCAR-5 ovarian): > 100 µM
- TGI (OVCAR-8 ovarian): 10.7 µM
- TGI (PC-3 prostate): > 100 µM
- TGI (RPMI-8226 leukemia): > 24.7 µM
- TGI (RXF 393 renal): > 100 µM
- TGI (SF-268 CNS): > 48.6 µM
- TGI (SF-295 CNS): > 74.3 µM
- TGI (SF-539 CNS): 21.4 µM
- TGI (SK-MEL-2 melanoma): > 72 µM
- TGI (SK-MEL-28 melanoma): > 100 µM
- TGI (SK-MEL-5 melanoma): 4.84 µM
- TGI (SK-OV-3 ovarian): > 100 µM
- TGI (SN12C renal): > 100 µM
- TGI (SNB-19 CNS): > 77.4 µM
- TGI (SNB-75 CNS): > 96.6 µM
- TGI (SR leukemia): > 27.7 µM
- TGI (SW-620 colon): > 100 µM
- TGI (T-47D breast): > 100 µM
- TGI (TK-10 renal): 49.2 µM
- TGI (U251 CNS): 15.6 µM
- TGI (UACC-257 melanoma): > 25.3 µM
- TGI (UACC-62 melanoma): 31.5 µM
- TGI (UO-31 renal): > 29.4 µM
